According to ChEMBL document CHEMBL6078700, “Synthesis of novel deuterated EGFR/ALK dual-target inhibitors and their activity against non-small cell lung cancer” (Eur J Med Chem, 2025):
The source made the active and inactive calls.

Columns and labels:
[1] = tested on: NCI-H1975; test: Anti-migration activity in human NCI-H1975 cells incubated for 24 hrs by scratch-wound assay; type: functional, cell-based; conditions: dose 5.0 nM, tested as the 2H-labelled form
[2] = tested on: Mus musculus; test: In vivo inhibition of EGFR phosphorylation in human NCI-H1975 cells xenografted in BALB/c-nu mouse at 15 to 30 mg/kg, po administered daily orally for 21 days by IHC analysis; type: functional, organism-based; conditions: dose 15-30 mg/kg, time 21.0 day, tested as the 2H-labelled form
[3] = tested on: NCI-H1975; test: Inhibition of colony formation in human NCI-H1975 cells assessed as reduction in tumor cell size incubated for 24 hrs followed by medium replacement daily without compound measured after 14 days by crystal violet staining based analysis; type: functional; conditions: dose 1-10 nM, tested as the 2H-labelled form
[4] = tested on: NCI-H1975; test: Downregulation of LANCL1 expression in human NCI-H1975 cells; type: functional, cell-based; conditions: tested as the 2H-labelled form
[5] = tested on: NCI-H1975; test: Induction of DNA damage in human NCI-H1975 cells assessed as increase in pH2AX level upto 10 nM incubated for 2 to 4 hrs by Western blot analysis; type: functional, cell-based; conditions: time 2-4 hrs, tested as the 2H-labelled form
[6] = tested on: NCI-H1975; test: Induction of mitochondrial membrane potential in human NCI-H1975 cells assessed as reduction in red fluorescence at 5 nM by JC-1 dye based analysis; type: functional, cell-based; conditions: tested as the 2H-labelled form
[7] = tested on: NCI-H1975; test: Induction of apoptosis in human NCI-H1975 cells assessed as increase in cleaved caspase-3 level upto 10 nM incubated for 2 to 4 hrs by Western blot analysis; type: functional, cell-based; conditions: time 2-4 hrs, tested as the 2H-labelled form
[8] = tested on: NCI-H1975; test: Induction of DNA damage in human NCI-H1975 cells at 1 nM incubated for 24 hrs by immunofluorescence based analysis; type: functional, cell-based; conditions: tested as the 2H-labelled form
[9] = target: ALK tyrosine kinase receptor (Homo sapiens) (UniProt Q9UM73); test: Inhibition of ALK phosphorylation in human NCI-H2228 cells at 25 to 50 nM incubated for 12 hrs by immunofluorescence based analysis; type: cell-based; conditions: dose 25-50 nM, tested as the 2H-labelled form
Chain of ALK tyrosine kinase receptor (Homo sapiens) (Q9UM73 19-1620 limits assumed): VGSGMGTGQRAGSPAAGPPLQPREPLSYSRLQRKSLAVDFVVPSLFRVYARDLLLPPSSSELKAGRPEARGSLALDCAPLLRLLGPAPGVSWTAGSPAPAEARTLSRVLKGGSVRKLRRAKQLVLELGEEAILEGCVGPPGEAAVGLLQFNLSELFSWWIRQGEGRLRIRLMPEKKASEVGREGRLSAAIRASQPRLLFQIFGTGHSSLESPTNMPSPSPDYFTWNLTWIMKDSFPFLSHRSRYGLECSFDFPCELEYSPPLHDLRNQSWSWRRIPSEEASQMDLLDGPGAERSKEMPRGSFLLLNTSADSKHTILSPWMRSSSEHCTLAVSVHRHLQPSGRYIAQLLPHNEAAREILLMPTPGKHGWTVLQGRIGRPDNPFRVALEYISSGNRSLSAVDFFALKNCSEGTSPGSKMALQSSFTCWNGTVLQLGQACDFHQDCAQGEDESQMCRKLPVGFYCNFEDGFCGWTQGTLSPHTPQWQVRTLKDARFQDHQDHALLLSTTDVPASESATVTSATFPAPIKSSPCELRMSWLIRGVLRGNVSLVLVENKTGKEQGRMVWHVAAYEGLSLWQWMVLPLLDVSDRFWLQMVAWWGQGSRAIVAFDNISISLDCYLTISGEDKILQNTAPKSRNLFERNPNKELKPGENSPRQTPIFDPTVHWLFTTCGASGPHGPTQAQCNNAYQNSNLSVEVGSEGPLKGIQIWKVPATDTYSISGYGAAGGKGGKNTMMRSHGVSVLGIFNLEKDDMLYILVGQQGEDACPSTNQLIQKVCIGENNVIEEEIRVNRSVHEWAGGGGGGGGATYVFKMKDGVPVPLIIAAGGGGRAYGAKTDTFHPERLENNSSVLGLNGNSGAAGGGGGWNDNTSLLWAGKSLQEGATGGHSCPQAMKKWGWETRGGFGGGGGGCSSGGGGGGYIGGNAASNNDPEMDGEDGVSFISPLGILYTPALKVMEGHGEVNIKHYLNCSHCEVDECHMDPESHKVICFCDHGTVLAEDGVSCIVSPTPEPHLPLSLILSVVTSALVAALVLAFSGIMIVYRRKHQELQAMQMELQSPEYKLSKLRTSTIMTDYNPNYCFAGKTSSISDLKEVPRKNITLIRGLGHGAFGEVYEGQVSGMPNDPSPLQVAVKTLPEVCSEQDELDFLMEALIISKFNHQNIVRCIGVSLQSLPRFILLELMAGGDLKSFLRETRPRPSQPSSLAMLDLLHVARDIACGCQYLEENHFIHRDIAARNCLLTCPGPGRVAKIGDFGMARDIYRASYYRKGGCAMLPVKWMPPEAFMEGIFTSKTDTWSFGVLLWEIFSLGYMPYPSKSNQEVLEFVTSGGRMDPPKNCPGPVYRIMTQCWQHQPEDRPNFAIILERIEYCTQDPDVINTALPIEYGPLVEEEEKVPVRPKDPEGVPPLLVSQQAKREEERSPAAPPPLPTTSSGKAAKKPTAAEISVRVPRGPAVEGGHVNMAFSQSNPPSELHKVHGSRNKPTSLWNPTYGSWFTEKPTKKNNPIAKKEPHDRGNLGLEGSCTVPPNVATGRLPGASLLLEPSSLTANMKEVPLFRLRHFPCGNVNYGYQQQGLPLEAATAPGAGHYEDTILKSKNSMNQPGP

[10] = tested on: NCI-H1975; test: Inhibition of colony formation in human NCI-H1975 cells assessed as reduction in tumor cell number incubated for 24 hrs followed by medium replacement daily without compound measured after 14 days by crystal violet staining based analysis; type: functional; conditions: dose 1-10 nM, tested as the 2H-labelled form
[11] = tested on: NCI-H1975; test: Induction of apoptosis in human NCI-H1975 cells assessed as decrease in BCL-XL level upto 10 nM incubated for 2 to 4 hrs by Western blot analysis; type: functional, cell-based; conditions: time 2-4 hrs, tested as the 2H-labelled form
[12] = tested on: NCI-H1975; test: Induction of mitochondrial membrane potential in human NCI-H1975 cells assessed as increase in green fluorescence at 5 nM by JC-1 dye based analysis; type: functional, cell-based; conditions: tested as the 2H-labelled form
[13] = tested on: NCI-H1975; test: Downregulation of Tomm40 expression in human NCI-H1975 cells; type: functional, cell-based; conditions: tested as the 2H-labelled form
[14] = tested on: NCI-H1975; test: Anti-invasive activity in human NCI-H1975 cells incubated for 48 hrs by transwell assay; type: functional, cell-based; conditions: dose 1-10 nM, tested as the 2H-labelled form
[15] = tested on: NCI-H1975; test: Downregulation of ERAP2 expression in human NCI-H1975 cells; type: functional, cell-based; conditions: tested as the 2H-labelled form
[16] = tested on: NCI-H1975; test: Anti-migration activity in human NCI-H1975 cells assessed as increase in E-cadherin level upto 10 nM incubated for 2 to 4 hrs by Western blot analysis; type: functional, cell-based; conditions: time 2-4 hrs, tested as the 2H-labelled form
[17] = target: ALK tyrosine kinase receptor (Homo sapiens) (UniProt Q9UM73); test: Inhibition of ALK in human NCI-H2228 cells assessed as decrease in pAKT level upto 10 nM incubated for 2 to 4 hrs by Western blot analysis; type: cell-based; conditions: time 2-4 hrs, tested as the 2H-labelled form
[18] = target: ALK tyrosine kinase receptor (Homo sapiens) (UniProt Q9UM73); test: Inhibition of ALK in human NCI-H2228 cells assessed as decrease in pERK level upto 10 nM incubated for 2 to 4 hrs by Western blot analysis; type: cell-based; conditions: time 2-4 hrs, tested as the 2H-labelled form
[19] = tested on: NCI-H1975; test: Induction of cell cycle arrest in human NCI-H1975 cells assessed as decrease in cyclin D1 level upto 10 nM incubated for 2 to 4 hrs by Western blot analysis; type: functional, cell-based; conditions: time 2-4 hrs, tested as the 2H-labelled form
[20] = tested on: NCI-H1975; test: Anti-migration activity in human NCI-H1975 cells assessed as decrease in N-cadherin level upto 10 nM incubated for 2 to 4 hrs by Western blot analysis; type: functional, cell-based; conditions: time 2-4 hrs, tested as the 2H-labelled form
[21] = tested on: NCI-H1975; test: Induction of apoptosis in human NCI-H1975 cells assessed as decrease in BCL-2 level upto 10 nM incubated for 2 to 4 hrs by Western blot analysis; type: functional, cell-based; conditions: time 2-4 hrs, tested as the 2H-labelled form
[22] = target: ALK tyrosine kinase receptor (Homo sapiens) (UniProt Q9UM73); test: Inhibition of ALK phosphorylation in human NCI-H2228 cells upto 10 nM incubated for 2 to 4 hrs by Western blot analysis; type: cell-based; conditions: time 2-4 hrs, tested as the 2H-labelled form

C=CC(=O)Nc1cc(Nc2ncc(Cl)c(Nc3ccccc3[S+]([O-])CC)n2)c(OC)cc1N(C)CCN(C)C (single isomer, unassigned; (-))
active: Activity [1] Dose-dependent-effect | inhibition [2] Active; Inhibitory Effect Was Observed Superior To That Of Osimertinib | inhibition [3] Dose-dependent-effect | Activity [4] | Activity [5] | Activity [6] | Activity [7] | Activity [8] | inhibition [9] | inhibition [10] Dose-dependent-effect | Activity [11] | Activity [12] | Activity [13] | Activity [14] Dose-dependent-effect | Activity [15] | Activity [16] | inhibition [17] | inhibition [18] | Activity [19] | Activity [20] | Activity [21] | inhibition [22]
